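Five compound concentrations were applied to cells in 96-well plates for 48 hours; endpoints were derived by simple linear interpolation of the resulting dose-response curve. GI50: concentration for 50% inhibition of growth.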 The source made the active and inactive calls. Rule as the data show it: active = GI50 up to about 1.1 µM and inactive = higher. Where a SMILES comes first, the peptide text is derived from it. [ ]: non-standard residue; d: D form. The star is where a group is joined. Phe(4-NO2) = N[CH](Cc1ccc([N+](=O)[O-])cc1)C(=O)O; Boc = CC(C)(C)OC(=O)*; OtBu = CC(C)(C)O*
Experiments:
Assay in all cases: NCI anticancer screen, dose series, 48 h
[1] = test system: CCRF-CEM
[2] = test system: Malme-3M
[3] = test system: HCC 2998
[4] = test system: SF-268
[5] = test system: SK-MEL-2
[6] = test system: OVCAR-4
[7] = test system: PC-3
[8] = test system: TK-10
[9] = test system: DU-145
[10] = test system: RPMI-8226
[11] = test system: SF-295
[12] = test system: UACC-257
[13] = test system: A498
[14] = test system: HOP-62
[15] = test system: SF-539
[16] = test system: KM-20L2
[17] = test system: OVCAR-5
[18] = test system: EKVX
[19] = test system: SK-MEL-5
[20] = test system: SNB-78

Measured: GI50

C=CC(=O)N1C/C(=C\c2ccccc2)C(=O)/C(=C/c2ccccc2)C1
inactive: [2] 2.15 µM | [3] 1.95 µM | [4] 1.97 µM | [5] 2.1 µM | [6] 2.16 µM | [7] 1.69 µM | [8] 2.88 µM | [9] 5.13 µM | [11] 2.1 µM | [12] 1.92 µM | [13] 2 µM | [14] 2.33 µM | [15] 1.58 µM | [16] 1.66 µM | [17] 2.49 µM | [18] 3.47 µM | [19] 1.61 µM
active: [1] 0.351 µM | [10] 0.0462 µM

O=C(c1no[n+]([O-])c1C(=O)c1csc2ccccc12)c1csc2ccccc12
inactive: [2] 3.19 µM | [3] 4.6 µM | [4] 6.27 µM | [5] 6.68 µM | [6] 2.86 µM | [7] 3.13 µM | [8] 1.99 µM | [9] 17.9 µM | [11] 14.6 µM | [12] 4.92 µM | [13] 15 µM | [14] 9.33 µM | [15] 2.61 µM | [17] 18.3 µM | [18] 3.55 µM | [19] 12.8 µM
active: [1] 0.0834 µM | [10] 0.521 µM

O=[N+]([O-])c1c(/C=N/Nc2ccccc2)oc(-c2ccc3c(c2)OCO3)c1-c1ccc2c(c1)OCO2
inactive: [2] 16.4 µM | [3] 5.71 µM | [4] 3.93 µM | [5] 2.49 µM | [6] 21.5 µM | [8] 19 µM | [10] 5.78 µM | [11] 26.9 µM | [12] 30.3 µM | [14] 3.9 µM | [15] 3.16 µM | [16] 2.24 µM | [17] 5.79 µM | [18] 12.4 µM

COc1ccc(CNc2cnc3cc(N)ccc3n2)cc1
inactive: [1] 30 µM | [2] > 100 µM | [3] > 100 µM | [4] > 100 µM | [5] > 100 µM | [6] > 100 µM | [8] > 100 µM | [10] 42.8 µM | [11] 94.4 µM | [20] > 100 µM | [14] > 100 µM | [15] > 100 µM | [16] > 100 µM | [17] > 100 µM | [18] > 100 µM | [19] > 100 µM

Cc1cnc2c(c1)C(=O)C1=C(OC(C)(C)CC1O)C2=O (configuration not stated)
inactive: [1] 13.2 µM | [2] 14.4 µM | [3] 17.7 µM | [4] 14.9 µM | [5] > 100 µM | [6] 12.8 µM | [8] 18.5 µM | [10] 13.6 µM | [11] 13.3 µM | [12] 13.3 µM | [14] 19.4 µM | [15] 16.4 µM | [16] 17.7 µM | [17] > 100 µM | [18] 20.7 µM | [19] 14 µM

NC1=C(NC(=O)Cc2ccc(F)cc2)C(=O)c2ccccc2C1=O
inactive: [1] > 53.5 µM | [2] 49.5 µM | [3] > 100 µM | [4] 39.7 µM | [5] > 60 µM | [6] > 100 µM | [8] 30.9 µM | [10] > 100 µM | [11] 33.3 µM | [12] 79.3 µM | [20] 26.1 µM | [14] > 52.4 µM | [15] > 78 µM | [16] > 100 µM | [17] > 100 µM | [18] > 100 µM | [19] 14.4 µM

COC(=O)C1Cc2c([nH]c3ccccc23)C(c2ccccc2O)N1 (configuration not stated)
inactive: [1] 45.4 µM | [2] > 100 µM | [3] 60.1 µM | [5] > 100 µM | [6] 53.5 µM | [8] 52 µM | [11] 78.5 µM | [12] 84.1 µM | [13] 21.3 µM | [15] 34.1 µM | [16] 95.5 µM | [17] > 100 µM | [18] > 100 µM | [19] 59 µM

Nc1ncnc2c1ncn2CC(O)C(=O)O (configuration not stated)
inactive: [1] > 100 µM | [2] > 100 µM | [3] > 100 µM | [4] > 100 µM | [5] > 100 µM | [6] > 100 µM | [7] > 100 µM | [8] > 100 µM | [9] > 100 µM | [10] > 100 µM | [11] > 100 µM | [12] > 100 µM | [13] > 100 µM | [14] > 100 µM | [15] > 100 µM | [16] > 100 µM | [17] > 100 µM | [18] > 100 µM | [19] > 100 µM

CC[C@@]12N=C(N(C)C)C[C@]1(O)ON=C2C
inactive: [1] > 100 µM | [2] > 100 µM | [3] > 100 µM | [4] > 100 µM | [5] > 100 µM | [6] > 100 µM | [8] > 100 µM | [10] > 100 µM | [11] > 100 µM | [13] > 100 µM | [15] > 100 µM | [16] > 100 µM | [18] > 100 µM | [19] > 100 µM

CC(C)(C)c1cc(C(=O)O)c2c(c1)C(=O)OC2(c1ccccc1)c1ccccc1C(=O)O (configuration not stated)
inactive: [1] > 100 µM | [2] > 100 µM | [4] > 100 µM | [5] > 100 µM | [6] 78.3 µM | [8] > 100 µM | [11] > 100 µM | [12] > 100 µM | [14] > 100 µM | [15] > 100 µM | [16] > 100 µM | [17] > 100 µM | [18] > 100 µM
active: [3] 0.467 µM

O=C1c2ccccc2N2OC3C4CCC(C4)C3C12c1ccccc1 (configuration not stated)
inactive: [1] 44.2 µM | [2] > 100 µM | [3] > 100 µM | [4] > 100 µM | [6] > 100 µM | [10] 37.1 µM | [11] > 100 µM | [12] 70 µM | [13] > 100 µM | [14] > 100 µM | [15] > 100 µM | [16] 98.2 µM | [18] > 100 µM | [19] 60.8 µM

Cc1nc2ccccc2c(=O)n1/N=C(\N=N\c1ccccc1Cl)c1ccccc1
inactive: [1] 17.3 µM | [4] 46.3 µM | [8] 60.5 µM | [10] 17 µM | [13] 27.5 µM | [14] 19.1 µM | [15] 18.7 µM | [16] 21.9 µM | [18] 20.8 µM | [19] 19.4 µM

CC1(C)OC(=O)C(C#N)=C1C[n+]1ccccc1
inactive: [1] > 10 µM | [2] > 10 µM | [3] > 10 µM | [4] > 10 µM | [5] > 10 µM | [6] > 10 µM | [7] > 10 µM | [8] > 10 µM | [9] > 10 µM | [10] > 10 µM | [11] > 10 µM | [12] > 10 µM | [13] > 10 µM | [14] > 10 µM | [15] > 10 µM | [17] > 10 µM | [18] > 10 µM | [19] > 10 µM

CSc1ccc(C2OC(=O)c3ccccc32)c2ccccc12 (configuration not stated)
inactive: [1] 54.8 µM | [2] > 100 µM | [3] 70.8 µM | [4] > 100 µM | [5] > 100 µM | [6] 70.5 µM | [10] 47.2 µM | [11] > 100 µM | [12] > 100 µM | [20] 46.5 µM | [14] > 100 µM | [15] > 100 µM | [16] 67 µM | [17] > 100 µM | [18] > 100 µM | [19] 58.2 µM

COC(=O)[C@@]12C3=NO[C@]1(C(=O)OC)C(O[Si](C)(C)C(C)(C)C)[C@H]1OC(C)(C)O[C@H]1[C@@H]2C(OCc1ccccc1)CC3 (some centres not stated)
inactive: [1] > 100 µM | [3] 63.1 µM | [5] 28.8 µM | [6] 22.3 µM | [8] 84.1 µM | [10] > 100 µM | [11] 37.3 µM | [13] 38.3 µM | [15] 59.2 µM | [16] 71.1 µM | [18] 89.1 µM | [19] 35.1 µM

Cn1cnc([N+](=O)[O-])c1Sc1nc2ccccc2s1
inactive: [2] 1.84 µM | [3] 10.2 µM | [4] 7.19 µM | [6] 3.01 µM | [10] 12.5 µM | [11] 20.8 µM | [20] 12.7 µM | [14] 25.2 µM | [15] 12.5 µM | [16] 10.4 µM | [17] 14.6 µM | [18] 3.96 µM | [19] 13.7 µM

COC(=O)C(Cc1ccc([N+](=O)[O-])cc1)NC(=O)C(CC(=O)OC(C)(C)C)NC(=O)OC(C)(C)C (configuration not stated) (Boc-Asp(OtBu)-[Phe(4-NO2)]-OMe; configuration not given here)
inactive: [1] > 100 µM | [2] > 100 µM | [3] 35.2 µM | [4] > 100 µM | [5] > 100 µM | [6] 38.4 µM | [7] > 100 µM | [8] > 100 µM | [9] > 100 µM | [10] 40 µM | [11] > 100 µM | [12] > 100 µM | [13] > 100 µM | [14] > 100 µM | [15] > 100 µM | [17] > 100 µM | [18] > 100 µM | [19] > 100 µM
